Data published in patent publication US4053481A, “2-Aryl-3,4-diphenylisoxazolin-5-ones” (G. D. Searle & Co., priority 1976, dated 1977).

System: microsomal-cytosol fraction
Experiment: % inhibition of C14-acetate incorporation into lipid fractions (fatty acid and cholesterol biosynthesis) in rat liver microsomal-cytosol fraction
Type: biochemical, Male Charles River rats
Details: 0.001 M; 37° C., 90 minutes
Experimental: The instant compounds are useful as pharmacological agents as evidenced by their ability to reduce serum triglyceride and cholesterol levels as determined in the following assay:
Male Charles River rats (160-200 g.), having had free access to food and water, are administered a standard diet containing 2% DEAE - cellulose (Reeve Angel anion exchange resin) for 5 days. The rats then are sacrificed and their livers removed immediately. The livers are homogenized in a medium consisting of 0.1 M potassium phosphate, pH 7.4, 0.004 m MgCl2 and 0.03 M nicotinamide, and the microsomalcytosol fraction obtained by centrifugation. 2.0 Ml. of the microsomal-cytosol fraction is incubated, at 37° C. for 90 minutes for fatty acid measurements and for measurement of cholosterol biosynthesis, in a standard assay mixture containing 10 micromoles of sodium acetate containing 0.1 microcuries of 2-C^14 -acetate, 2 micromoles nicotinamide adenine dinucleotide, 2 micromoles nicotinamide adenine dinucleotide phosphate, and 20 micromoles glucose-6-phosphate, and test compound, initially at 0.001 M, is added. All assays are run in duplicate with the assay to which no test compound is added serving as control. Heat inactivated homogenate serves as blank for both control and test systems.
Reaction rate is determined per unit of time by the amount of C^14 label incorporated into the lipid fraction from the radioactive acetate. Results are reported as % inhibition (i.e. (Difference in Reaction Rate between Control and Test Compound/Reaction Rate for Control) × 100).
Typical results are shown below in Table I for the product of Example 2, referred to as Compound I. Also represented are the results for Atromid S® , a brand of clofibrate, marketed as a hypocholesterolemic agent.

SMILES: CCOC(=O)C(C)(C)Oc1ccc(Cl)cc1 [Atromid-S, clofibrate]
- % Inhibition, Fatty Acid Fraction: 24%
- % Inhibition, Fraction (first column, qualifier not given): 28%
- % Inhibition, Non-Lipid Fraction: 42%
